Measurements taken from patent US5407939A, “Fluorinated 17 β-substituted 4-aza-5 α-androstan-3-one derivatives” (Farmitalia Carlo Erba S.R.L., priority 1992, dated 1995).

Tests used:
5α-reductase [1] = assay: In vivo inhibition of 5α-reductase (antiandrogenic effect, ventral prostate weight in castrated, testosterone-implanted rats); settings: rat, once daily for 7 consecutive days
Experimental: The standard test for the antiandrogenic effect in rats was used. Prepuberal 22-day-old male rats were castrated via scrotal incision under light ether anaesthesia. […] Control animals (testosterone controls) received the vehicle (0.5 ml/kg of 0.5% Methocel/0.4% Tween 80). One group of castrated rats was not implanted with testosterone (castrated controls).
The mean percentage of inhibition of the T-induced hypertrophic response of the prostate was calculated according to the following formula: […]

5α-reductase [2] = target: T1, 5α-reductase (Homo sapiens, UniProt P31213); assay: In vitro assay of 5α-reductase inhibition (particulate fraction from homogenates of hyperplastic human prostates, [14C] testosterone); format: biochemical; settings: human prostate particulate fraction, pH 5.5, 1 μM [14C] testosterone, 30 min, 37° C.
T1 construct: particulate fraction from homogenates of hyperplastic human prostates; from tissue; host or cells: hyperplastic human prostate, particulate fraction (140,000×g pellet)
T1 sequence (P31213 1-254): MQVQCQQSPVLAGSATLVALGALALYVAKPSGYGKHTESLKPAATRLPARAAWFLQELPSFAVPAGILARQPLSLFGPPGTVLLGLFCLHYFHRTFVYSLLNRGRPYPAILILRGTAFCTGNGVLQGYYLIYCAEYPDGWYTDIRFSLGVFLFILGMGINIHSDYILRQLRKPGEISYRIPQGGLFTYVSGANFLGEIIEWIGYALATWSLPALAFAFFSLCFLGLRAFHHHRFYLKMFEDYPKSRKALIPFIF
Experimental: Inhibition of 5α-reductase was evaluated using the particulate fraction from homogenates of hyperplastic human prostates as the enzyme source. The particulate fraction was prepared centrifuging prostate homogenate at 140,000×g. The resulting pellet, washed several times, was resuspended in buffer and stored at -80° C. in aliquots containing ≈10 mg protein/mi.
The assay for 5α-reductase was done in a final volume of 0.5 ml, in 40 mM TRIS-HCl buffer pH 5.5, containing 1 mM dithiothreitol, 5 mM NADPH, 1 μM [^14 C] testosterone, an aliquot of the enzyme preparation and various of the inhibitors. After 30 min incubation at 37° C. the reaction was terminated by addition of 2 ml cold diethyl ether and the organic phase was separated, evaporated under N2 and resuspended in ethyl acetate. Testosterone metabolites in this extract were separated in TLC on silica gel F 254 plates (Merck), using chloroform, acetone and n-hexane (2:1:2) as developing solvent system.
Radioactivity on the plate was scanned and analyzed from quantitative plots printed by a TLC-analyzer (Berthold). The fractional 5α-reduction of testosterone was calculated by relating the ^14 C-radioactivity in the 5α-reduced metabolites (5α-dihydrotestosterone, 3α- and 3β-androstanediols) regions to the total radioactivity in the testosterone and 5α-reduced metabolites regions. […]

- IC50 (5α-reductase [2]): 21 nM
SMILES: C[C@]12C=CC(=O)N[C@@H]1CC[C@@H]1[C@@H]2CC[C@]2(C)[C@@H](C(=O)NC(c3ccccc3)C(F)(F)F)CC[C@@H]12 (stereo partly drawn) [Compound 40, N-(2,2,2-trifluorophenylethyl) 3-oxo-4-aza-5α-androst-1-ene-17β-carboxamide]
- % INHIBITION OF PROSTATE WEIGHT AT 3 mg/kg/day p.o. (5α-reductase [1]): 51%
